{"source": "patent US20140378408A1", "about": "“NUCLEOSIDE 5'-PHOSPHOROTHIOATE ANALOGUES AND USES THEREOF” (BAR-ILAN UNIVERSITY, an Israeli University, priority 2012, published 2014)", "key": {"TNAP": {"target": "T1, TNAP (Homo sapiens, UniProt P05186)", "T1 sequence (P05186 18-501)": "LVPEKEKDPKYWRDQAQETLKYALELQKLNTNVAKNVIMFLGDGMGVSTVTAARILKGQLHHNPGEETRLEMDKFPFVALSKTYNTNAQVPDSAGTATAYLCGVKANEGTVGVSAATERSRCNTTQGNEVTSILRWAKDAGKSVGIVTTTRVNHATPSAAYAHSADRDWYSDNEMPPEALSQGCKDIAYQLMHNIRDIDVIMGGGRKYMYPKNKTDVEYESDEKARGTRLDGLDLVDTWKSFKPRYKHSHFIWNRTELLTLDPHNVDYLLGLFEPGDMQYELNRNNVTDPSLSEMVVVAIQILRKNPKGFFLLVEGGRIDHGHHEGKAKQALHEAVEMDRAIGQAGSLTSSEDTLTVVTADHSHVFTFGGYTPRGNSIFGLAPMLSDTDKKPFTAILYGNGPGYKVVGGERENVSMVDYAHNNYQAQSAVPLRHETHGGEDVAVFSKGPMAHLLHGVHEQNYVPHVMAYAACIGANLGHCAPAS", "experiment": "Inhibition of TNAP", "assay_type": "biochemical"}, "human NPP3": {"target": "T2, human NPP3 (Homo sapiens, UniProt O14638)", "T2 construct": "made in house; host or cells: COS-7 cells (transfected; protein extract / cell lysate)", "T2 sequence (O14638 1-875)": "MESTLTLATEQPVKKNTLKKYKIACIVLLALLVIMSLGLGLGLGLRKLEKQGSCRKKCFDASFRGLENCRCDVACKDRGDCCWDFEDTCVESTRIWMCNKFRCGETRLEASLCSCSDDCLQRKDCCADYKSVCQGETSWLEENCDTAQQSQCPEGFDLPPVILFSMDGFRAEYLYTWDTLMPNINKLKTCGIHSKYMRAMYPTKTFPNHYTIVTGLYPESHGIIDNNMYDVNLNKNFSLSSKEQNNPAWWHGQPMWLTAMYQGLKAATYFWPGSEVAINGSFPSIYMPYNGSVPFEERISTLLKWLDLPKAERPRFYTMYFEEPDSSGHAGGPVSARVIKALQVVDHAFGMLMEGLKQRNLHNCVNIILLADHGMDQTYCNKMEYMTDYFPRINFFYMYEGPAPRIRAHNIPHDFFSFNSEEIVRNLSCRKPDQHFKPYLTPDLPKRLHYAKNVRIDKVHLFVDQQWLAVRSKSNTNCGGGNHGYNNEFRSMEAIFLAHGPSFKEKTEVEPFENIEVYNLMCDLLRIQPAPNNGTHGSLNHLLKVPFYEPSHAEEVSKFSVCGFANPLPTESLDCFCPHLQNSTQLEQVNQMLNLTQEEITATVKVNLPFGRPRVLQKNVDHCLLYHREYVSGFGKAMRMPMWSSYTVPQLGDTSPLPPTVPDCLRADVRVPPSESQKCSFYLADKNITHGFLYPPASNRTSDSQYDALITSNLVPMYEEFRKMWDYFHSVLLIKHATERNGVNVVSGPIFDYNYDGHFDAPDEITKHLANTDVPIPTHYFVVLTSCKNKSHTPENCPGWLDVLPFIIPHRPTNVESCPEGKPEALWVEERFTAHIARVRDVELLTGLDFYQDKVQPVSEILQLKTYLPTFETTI", "experiment": "Hydrolysis by human NPP3", "assay_type": "in vitro ADME", "conditions": "100 μM, 1 h, compared to ATP"}, "PC12 cells": {"tested_on": "PC12 cells", "experiment": "Inhibition of Fe(II)-induced ROS formation in PC12 cells (DCFH-DA)", "assay_type": "cell-based", "conditions": "read-out: IC50 inhibition of ROS formation", "experimental": "In this study, nucleoside 5′-phosphorothioate analogues were explored as inhibitors of Fe(II)-induced oxidative stress in PC12 cells used as a neuronal model. Reduction of ROS production in PC12 cells by each one of the tested analogues was measured by DCFH-DA, a radical sensitive indicator. After DCFH-DA was removed, the tested analogue was added to the cells at a final concentration of 0.2-200 μM. Oxidation was initiated by the addition of FeSO4 (0.16 μM) to the wells. The plates were incubated for 1 h at 37° C., during which the absorbance was read by a Tecan fluorometer at 485/530 nm."}, "Aβ42-Zn^2+ aggregates": {"target": "T3, Aβ42-Zn^2+ aggregates (Homo sapiens, UniProt P05067)", "T3 construct": "Aggregation of monomeric Aβ42 was achieved by adding Zn(NO3)2 to a Aβ42 solution; purchased GL-Biochem (Shanghai)", "T3 sequence (P05067 672-713 limits assumed)": "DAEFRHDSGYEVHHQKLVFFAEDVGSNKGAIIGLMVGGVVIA", "experiment": "Turbidity assay at 405 nm, Aβ42-Zn^2+ aggregates", "experimental": "Aβ42 was weighted and dissolved in 10 mM NaOH, sonicated for 3 min and then freeze-dried. The freeze-dried Aβ42 was dissolved in 50 mM Tris-HCl (pH 7.4). The mixture was split and the pH of one of the samples was adjusted to 7.4 and the second sample to 6.6 by addition of 200 μM HCl. Two 300 μM Aβ42 mixtures were obtained. From these mixtures, controls and Aβ42-M^2+ aggregates were prepared by the addition of 1 mM Zn(NO3)2 or Cu(NO3)2 in DDW: 1. 200 μM Aβ42 (pH 7.4); 2. 200 μM Aβ42 (pH 6.6); 3.4×200 μM Aβ42-Zn^2+ (pH 7.4); 4.4×200 μM Aβ42-Cu^2+ (pH 6.6). The mixtures were left at RT for 2 h to form aggregates. 1 mM EDTA, ADP-β-S, and APCPP-γ-S in DDW were added to Aβ42-Zn^2+/Cu^2+ aggregates, then the mixtures were diluted with buffer to give the following mixtures: (i) 50 μM Aβ42-Cu^2+/Zn^2+; (ii) 50 μM Aβ42-Cu^2+/Zn^2+ containing 150 μM chelator (3 eq or) 300 μM chelator (6 eq) final volume 100 μl. The mixtures left at RT for 30 min before measurements, done in duplicate. 80 μl sample was taken for measurements in a quartz cuvette.\nAggregation of Aβ-metal ion complexes results in a turbid mixture that increases the light scattering in solution, leading to a higher absorbance at 405 nm (Storr et al., 2009).\nAggregation of monomeric Aβ42 was achieved by adding Zn(NO3)2 to a Aβ42 solution at pH 7.4, and Cu(NO3)2 to a Aβ42 solution at pH 6.6. […] The resultant Aβ42 mixtures were assayed for the resolubilization capacity of ADP-β-S and APCPP-γ-S in comparison to EDTA. […] At […] chelator, EDTA, ADP-β-S and APCPP-γ-S were almost equi-efficacious (FIG. 8B)."}, "[1]": {"experiment": "ESR OH radical assay, Fe^2+/H2O2 Fenton system", "conditions": "N/A = minimal radical production exceeds 10%"}}, "note": "Where two headings read alike, the source gives them in different places."}
{"smiles": "Nc1ncnc2c1ncn2[C@@H]1O[C@H](COP(O)(=S)OP(=O)(O)C(Cl)(Cl)P(=O)(O)O)[C@@H](O)[C@H]1O", "note": "(single isomer, unassigned; isomer a) [APPCCl2P-α-S (isomer A), adenosine 5′-[Pα-thio]-β,γ-(dichloromethylene)triphosphate]", "values": [{"measurement": "inhibition of TNAP", "setting": "TNAP; 100 μM", "result": 17, "unit": "%"}]}
{"smiles": "Nc1ncnc2c1ncn2[C@@H]1O[C@H](COP(O)(=S)OP(=O)(O)CP(=O)(O)O)[C@@H](O)[C@H]1O", "note": "(single isomer, unassigned; isomer a) [APPCP-α-S (isomer A), adenosine 5′-[Pα-thio]-β,γ-methylenetriphosphate]", "values": [{"measurement": "Hydrolysis by NPP3", "setting": "human NPP3", "result": "~1", "unit": "%"}]}
{"smiles": "Nc1ncnc2c1ncn2[C@@H]1O[C@H](COP(O)(=S)OP(=O)(O)CP(=O)(O)O)[C@@H](O)[C@H]1O", "note": "(single isomer, unassigned; isomer b) [APPCP-α-S (isomer B), adenosine 5′-[Pα-thio]-β,γ-methylenetriphosphate]", "values": [{"measurement": "Hydrolysis by NPP3", "setting": "human NPP3", "result": "~4", "unit": "%"}]}
{"smiles": "Nc1ncnc2c1ncn2[C@@H]1O[C@H](COP(=O)(O)OP(O)(O)=S)[C@@H](O)[C@H]1O", "note": "[ADP-β-S, adenosine 5′-[β-thio]diphosphate, reference compound]", "values": [{"measurement": "IC50", "setting": "PC12 cells; PC12 cells, FeSO4 0.16 μM, 1 h, DCFH-DA", "result": 26, "unit": "µM"}, {"measurement": "less effective than EDTA by", "setting": "Aβ42-Zn^2+ aggregates; 3 eq", "result": 63, "unit": "%"}, {"measurement": "less effective than EDTA by", "setting": "Aβ42-Zn^2+ aggregates; 6 eq", "result": 27, "unit": "%"}, {"measurement": "IC90", "setting": "[1]", "result": "210 ± 1", "unit": "µM"}]}
{"smiles": "Nc1ncnc2c1ncn2[C@@H]1O[C@H](COP(=O)(O)CP(=O)(O)OP(O)(O)=S)[C@@H](O)[C@H]1O", "note": "[APCPP-γ-S, adenosine 5′-[Pγ-thio]-α,β-methylenetriphosphate]", "values": [{"measurement": "IC50", "setting": "PC12 cells; Rattus norvegicus, PC-12, 1 h", "result": 0.16, "unit": "µM"}, {"measurement": "inhibition at 100 µM", "setting": "TNAP", "result": 8, "unit": "%"}, {"measurement": "less effective than EDTA by", "setting": "Aβ42-Zn^2+ aggregates; 3 eq", "result": 21, "unit": "%"}, {"measurement": "less effective than EDTA by", "setting": "Aβ42-Zn^2+ aggregates; 6 eq", "result": 12, "unit": "%"}, {"measurement": "IC90", "setting": "[1]", "result": "211 ± 7", "unit": "µM"}]}
